US20050084484A1, “Reduction of oxidative stress factors” (Probi AB, priority 1999, published 2005)

Columns and labels:
[1] = test system: monocytes and lymphocytes; assay: Effect of ibuprofen on ROS production, comparative study; assay type: in vivo, human; settings: ibuprofen 500 mg/d for 3 weeks, six healthy volunteers; preliminary data; compared with Lactobacillus plantarum 299v
Method: The measurement of cell oxidation is based on reactive oxygen species (ROS) mediated conversion of nonfluorescent 2,7′-dichlorofluorescein (DCFH), loaded into cells as 2,7′-dichlorofluorescein diacetate, into fluorescent DCF with increased fluorescence emission reflecting enhanced oxidative stress. Freshly isolated PBMC, consisting of approximatively 30% monocytes and 70% lymphocytes, were resuspended in phosphate buffered saline (PBS) followed by incubation with 20 μM […] at 37° C. for 30 min in the dark. The cells were then washed with PBS. The relative fluorescence intensity of the fluorophore 2′,7-dichlorofluorescein, which is formed by peroxide oxidation of its nonfluorescent precursor, was detected with cytofluorimetric assay (FACScan, Becton Dickinson). During flow cytometric analysis monocytes and lymphocytes were gated on the basis of forward scater (FCS) and side scater (SCC). The results are expressed as mean fluorescence intensity […].
In order to investigate the mechanisms behind the reduction of ROS by ibuprofen, a propionic acid derivative and a well-known antiinflammatory drug, ibuprofen was administered in an amount of 500 mg/d to the same group of six healthy volunteers as participated in the study described in Test 1 for 3 weeks.

[2] = test system: Human monocyte macrophage cells; assay: Propionic acid induced reduction of oxidative stress (8-Isoprostane EIA); assay type: cell-based; settings: 10 μM propionic acid 4 h, then LPS 1.0 ng/ml 24 h; versus control cells; mean of 3 experiments
Method: Human monocyte macrophage cells were isolated as described above and 6 million cells were preincubated in 2 ml of RPMI-1640 medium (10% fetalcalf serum, […] of penicillin/streptomycin, 2 mM glutamine) in dishes having a diameter of […]. 10 μM propionic acid was then added and the cells were incubated at 37° C. for 4 h. The medium was subsequently removed and replaced with fresh medium and the cells were stimulated with LPS (lipopolysaccharide), 1.0 ng/ml medium, in order to provoke prooxidant stress. After 24 h the medium was removed and concentrated 10 times by evaporation. Oxidative stress with and without (control cells) propionic acid was evaluated using the 8-Isoprostane EIA kit from Cayman Chemical.
The reduction of oxidative stress expressed as the mean value from 3 experiments of the decrease in the 8-isoprostane level was 47%.

Row | SMILES | ROS response of monocytes and lymphocytes [1] | Reduction of oxidative stress, decrease in the 8-isoprostane level [2] [%]
1 | CC(C)Cc1ccc(C(C)C(=O)O)cc1 (centres unmarked) [ibuprofen] | respond in exactly the same way | –
2 | CCC(=O)O [propionic acid] | – | 47
